Measured values: patent US11369662B2 (The Medical College of Wisconsin, Inc., priority 2014, dated 2022)

System: U-937 cells
Assay: Agarose microdroplet assay of U-937 migration
Assay type: cell-based
Conditions: 18-24 h, serum-containing media
Experimental: Agarose microdroplet assay. The agarose microdroplet assay was performed to determine U-937 cellular migration, as previously described. 0.5×10^6 cells/ml U-937 target cells were harvested and washed in HBSS. Cells were spun at 2,000 rpm and were transferred to a graduated 15 ml glass conical tube. The cell concentration was adjusted in agarose medium, prepared from 2% low melting temperature Seaplaque agarose and medium containing 15% FBS, using a 1:4 volume-to-volume dilution. A 1 μl agarose droplet containing 1-10^5 target cells was placed in the center of each well of a 96-well flat-bottom tissue culture plate, in triplicate, using a gastight 0.05 ml Hamilton syringe (Hamilton Company, Reno, Nev.). Droplets were allowed to harden at 4° C. for 20 min. 200 μl chilled test media was applied to each well. […] The plate was incubated for 18-24 h at 37° C. and 5% CO2. Following incubation, the radius of each droplet was determined and target cell migration was measured at four directional points 900 from one another, using an inverted light microscope equipped with a gridded eyepiece, at 40× total magnification. Percent inhibition of each sample was quantified. The plate was incubated for an additional 24 h to measure recovery, and viability was determined by trypan blue exclusion.
Agarose microdroplet assay. The agarose microdroplet assay was performed to determine U-937 cellular migration, as previously described {AdeCXCL121an, 1980 #1609}. 0.5×10^6 cells/ml U-937 target cells were harvested and washed in HBSS. Cells were spun at 2,000 rpm and were transferred to a graduated 15 ml glass conical tube. […] Following incubation, the radius of each droplet was determined and target cell migration was measured at four directional points 900 from one another, using an inverted light microscope equipped with a gridded eyepiece, at 40× total magnification. Percent inhibition of each sample was quantified. The plate was incubated for an additional 24 h to measure recovery, and viability was determined by trypan blue exclusion.

CXCL12WT: wild type CXCL12 (stromal cell-derived factor-1/SDF-1), SEQ ID NO:1
maximal inhibition of U-937 cell migration: 40.1±18%
